According to patent publication US20250355000A1, “URINARY BRANCHED-CHAIN AMINO ACIDS (UBCAAS) AS INSULIN RESISTANCE BIOMARKERS” (SKILLCELL, priority 2022, published 2025):
Like-named read-outs stand apart in the source and are kept apart here.

Tested on: Leucine Dehydrogenase (LeuDH) from B. cereus containing a SUMO-protein domain
Assay type: biochemical, Bacillus cereus
Conditions: for A 600 nm (absorbance values for L-amino acids): 15 minutes at 37° C., 100 mM Tris-HCl pH7.5, MTT reduction
Description: The IDIr biochemical network uses the enzyme Leucine Dehydrogenase (LeuDH) for oxidizing the branched-chain amino acids (BCAA) and for producing the colorimetric substrate, blue reduced MTT. The absorbance values are proportional to BCAA levels. Detection and measurement branched-chain amino acids in biological fluids (serum and urine) correlate with insulin-resistance indexes. Thus, the substrate specificity (other L-amino acids than BCAA) of Leucine Dehydrogenase (LeuDH) from B. cereus containing a SUMO-protein domain needs to be verified to avoid erroneous results using IDIr test.
Analysis of the substrate specificity of the Leucine Dehydrogenase co-expressed with SUMO-protein domain was done using 18 natural proteinogenic L-amino acids in the same conditions used for determining the kinetic parameter of LeuDH with BCAA as substrates.
All solutions were prepared in 100 mM Tris-HCl pH7.5 buffer
• NAD+50 mM • Ascorbate Oxidase 10 U/mL • 1M-PMS 0.2 mM
• MTT 2 mM • Leucine Dehydrogenase 75 U/mL • L-amino acids • L-Leucine 1 mM • L-Valine 1 mM • L-Isoleucine 1 mM • L-Alanine 1 mM • L-Arginine 1 mM • L-Aspartate 1 mM • L-Glycine 1 mM • L-Glutamate 1 mM • L-Glutamine 1 mM • L-Histidine 1 mM • L-Lysine 1 mM • L-Methionine 1 mM • L-Phenylalanine 1 mM • L-Proline 1 mM • L-Serine 1 mM • L-Threonine 1 mM • L-Tryptophan 1 mM • L-Tyrosine 1 mM
8 μL of A Solution were pre-incubated with 53 μL of each L-amino acid separately in a well of the microplate for 5 minutes at 37° C. Then, 4 μL of B Solution were added. The kinetics of the reactions were followed during 30 minutes at 37° C. Absorbances were read at 600 nm every 60 seconds.
Blanks were performed using Tris-HCl 100 mM pH 7.5 buffer containing no L-amino acid during the incubation with A solution. Experiments were performed in duplicates. Results were normalized to the oxidation of L-leucine at 15 minutes.
Oxidation of L-amino acids was followed by colorimetric reduction of Thyazolyl Blue Tetrazolium Bromide. Absorbance at 600 nm is proportional to the concentration of L-amino acids in solution.

[1] = normalized to L-Leucine oxidation at 15 minutes (100%), 37° C., L-amino acid 1 mM

`NCC(=O)O` [GLY, L-Glycine] was tested, and the “Normalized activity (%)” value was 0.1% and the “A 600 nm (absorbance values for L-amino acids)” value (“A 600 nm” below) (L-amino acid 1 mM) was 0.001.

In the case of `N[C@@H](CC(=O)O)C(=O)O` [ASP, L-Aspartate], the “A 600 nm” value (L-amino acid 1 mM) is reported as 0.000 and the “Normalized activity (%)” value [1] is reported as 0.0%.

`N=C(N)NCCC[C@H](N)C(=O)O` [ARG, L-Arginine] was tested, and the “A 600 nm” value (L-amino acid 1 mM) was 0.003 and the “Normalized activity (%)” value [1] was 0.4%.

With `C[C@H](N)C(=O)O` [ALA, L-Alanine] the “A 600 nm” value (L-amino acid 1 mM) was 0.002 and the “Normalized activity (%)” value [1] was 0.3%.

`CC[C@H](C)[C@H](N)C(=O)O` [ILE, L-Isoleucine] was tested, and the “A 600 nm” value (L-amino acid 1 mM) was 0.601 and the “Normalized activity (%)” value [1] was 102.5%.

For `CSCC[C@H](N)C(=O)O` [MET, L-Methionine], the “Normalized activity (%)” value was 3.2% and the “A 600 nm” value (L-amino acid 1 mM) was 0.019.

With `N[C@@H](Cc1ccc(O)cc1)C(=O)O` [TYR, L-Tyrosine] the “A 600 nm” value (L-amino acid 1 mM) was 0.002 and the “Normalized activity (%)” value [1] was 0.3%.

For `O=C(O)[C@@H]1CCCN1` [PRO, L-Proline], the “Normalized activity (%)” value was 1.3% and the “A 600 nm” value (L-amino acid 1 mM) was 0.008.

For `N[C@@H](Cc1ccccc1)C(=O)O` [PHE, L-Phenylalanine], the “A 600 nm” value (L-amino acid 1 mM) was 0.002 and the “Normalized activity (%)” value [1] was 0.3%.

With `N[C@@H](CCC(=O)O)C(=O)O` [GLU, L-Glutamate] the “A 600 nm” value (L-amino acid 1 mM) was 0.002 and the “Normalized activity (%)” value [1] was 0.3%.

With `CC(C)C[C@H](N)C(=O)O` [LEU, L-Leucine] the “A 600 nm” value (L-amino acid 1 mM) was 0.587 and the “Normalized activity (%)” value [1] was 100.0%.

With `NCCCC[C@H](N)C(=O)O` [LYS, L-Lysine] the “A 600 nm” value (L-amino acid 1 mM) was 0.001 and the “Normalized activity (%)” value [1] was 0.1%.

For `NC(=O)CC[C@H](N)C(=O)O` [GLN, L-Glutamine], the “A 600 nm” value (L-amino acid 1 mM) was 0.001 and the “Normalized activity (%)” value [1] was 0.2%.

For `N[C@@H](Cc1c[nH]cn1)C(=O)O` [HIS, L-Histidine], the “A 600 nm” value (L-amino acid 1 mM) was 0.001 and the “Normalized activity (%)” value [1] was 0.2%.

For `N[C@@H](Cc1c[nH]c2ccccc12)C(=O)O` [TRP, L-Tryptophan], the “A 600 nm” value (L-amino acid 1 mM) was 0.003 and the “Normalized activity (%)” value [1] was 0.4%.

With `C[C@@H](O)[C@H](N)C(=O)O` [THR, L-Threonine] the “A 600 nm” value (L-amino acid 1 mM) was 0.002 and the “Normalized activity (%)” value [1] was 0.3%.

`CC(C)[C@H](N)C(=O)O` [VAL, L-Valine] was tested, and the “A 600 nm” value (L-amino acid 1 mM) was 0.612 and the “Normalized activity (%)” value [1] was 104.3%.

With `N[C@@H](CO)C(=O)O` [SER, L-Serine] the “A 600 nm” value (L-amino acid 1 mM) was 0.001 and the “Normalized activity (%)” value [1] was 0.2%.
